Source: US20240092784A1, “CONDENSED HETEROCYCLIC COMPOUND” (NISSAN CHEMICAL CORPORATION, priority 2020, published 2024)

Target: human SPR (Homo sapiens (Human), UniProt P35270)
Test: Evaluation Example 2: Measurement of human SPR inhibitory activity (seven concentrations, sepiapterin absorbance at 420 nm)
Assay type: biochemical
Details: Evaluation Example 2, seven concentrations 0.14 nM to 100 nM, 240 minutes at room temperature, read-out: IC50
Method in brief: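 Reactions ran 240 min at room temperature in 100 mM Tris-HCl pH 7.5 with 0.01% BSA. They contained tag-cleaved, E. coli-expressed full-length human SPR (diluted to 150 ng/mL), seven compound concentrations from 0.14 to 100 nM, and sepiapterin/NADPH added as a 120 μM/160 μM solution. Inhibition was calculated from sepiapterin absorbance at 420 nm.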

human SPR, sequence (P35270 whole entry): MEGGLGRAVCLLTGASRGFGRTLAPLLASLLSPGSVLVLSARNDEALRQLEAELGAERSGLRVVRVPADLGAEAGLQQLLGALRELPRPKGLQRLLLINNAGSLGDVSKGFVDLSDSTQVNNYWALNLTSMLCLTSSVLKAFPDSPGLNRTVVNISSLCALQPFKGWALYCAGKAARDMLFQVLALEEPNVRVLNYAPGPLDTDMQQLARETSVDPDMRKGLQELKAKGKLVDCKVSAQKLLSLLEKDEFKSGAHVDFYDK

Row | SMILES | IC50
1 | Cc1nn2c(O)c(C(=O)NC3CC3)c(=O)n(CC(C)C)c2c1/C=C/C(=O)N1CCO[C@@H](C)C1 [Synthesis Example 680, (S,E)-N-Cyclopropyl-7-hydroxy-4-isobutyl-2-methyl-3-(3-(2-methylmorpholino)-3-oxoprop-1-en-1-yl)-5-oxo-4,5-dihydropyrazolo[1,5-a]pyrimidine-6-carboxamide] | 0.81 nM
2 | Cc1nn2c(O)c(C(=O)NC3CC3)c(=O)n(CC(C)C)c2c1/C=C/C(=O)N(C)CC#N [Synthesis Example 681, (E)-3-(3-((Cyanomethyl)(methyl)amino)-3-oxoprop-1-en-1-yl)-N-cyclopropyl-7-hydroxy-4-isobutyl-2-methyl-5-oxo-4,5-dihydropyrazolo[1,5-a]pyrimidine-6-carboxamide] | 0.64 nM

Same assay, conditions: sepiapterin absorbance, Table 41, read-out: concentration at 50% inhibition of human SPR (IC50)

Row | SMILES | IC50
3 | COC[C@@H]1COCCN1C(=O)/C=C/c1c(C)nn2c(O)c(C(=O)NC3CC3)c(=O)n(CC(C)C)c12 [Synthesis Example 682, (R,E)-N-Cyclopropyl-7-hydroxy-4-isobutyl-3-(3-(3-(methoxymethyl)morpholino)-3-oxoprop-1-en-1-yl)-2-methyl-5-oxo-4,5-dihydropyrazolo[1,5-a]pyrimidine-6-carboxamide] | 0.85 nM
4 | COC[C@H]1COCCN1C(=O)/C=C/c1c(C)nn2c(O)c(C(=O)NC3CC3)c(=O)n(CC(C)C)c12 [Synthesis Example 683, (S,E)-N-Cyclopropyl-7-hydroxy-4-isobutyl-3-(3-(3-(methoxymethyl)morpholino)-3-oxoprop-1-en-1-yl)-2-methyl-5-oxo-4,5-dihydropyrazolo[1,5-a]pyrimidine-6-carboxamide] | 0.82 nM
5 | Cc1nn2c(O)c(C(=O)NC3CC3)c(=O)n(CC(C)C)c2c1/C=C/C(=O)N1CCC(C#N)CC1 [Synthesis Example 684, (E)-3-(3-(4-Cyanopiperidin-1-yl)-3-oxoprop-1-en-1-yl)-N-cyclopropyl-7-hydroxy-4-isobutyl-2-methyl-5-oxo-4,5-dihydropyrazolo[1,5-a]pyrimidine-6-carboxamide] | 0.89 nM
6 | Cc1nn2c(O)c(C(=O)NC3CC3)c(=O)n(CC(C)C)c2c1/C=C/C(=O)N1CCN(CC(F)(F)F)CC1 [Synthesis Example 685, (E)-N-Cyclopropyl-7-hydroxy-4-isobutyl-2-methyl-5-oxo-3-(3-oxo-3-(4-(2,2,2-trifluoroethyl)piperazin-1-yl)prop-1-en-1-yl)-4,5-dihydropyrazolo[1,5-a]pyrimidine-6-carboxamide] | 1.23 nM
7 | Cc1nn2c(O)c(C(=O)NC3CC3)c(=O)n(CC(C)C)c2c1/C=C/C(=O)N(C)CC(C)(C)O [Synthesis Example 686, (E)-N-Cyclopropyl-7-hydroxy-3-(3-((2-hydroxy-2-methylpropyl)(methyl)amino)-3-oxoprop-1-en-1-yl)-4-isobutyl-2-methyl-5-oxo-4,5-dihydropyrazolo[1,5-a]pyrimidine-6-carboxamide] | 1 nM
8 | Cc1nn2c(O)c(C(=O)NC3CC3)c(=O)n(CC(C)C)c2c1/C=C/C(=O)N(C)CCC#N [Synthesis Example 687, (E)-3-(3-((2-Cyanoethyl)(methyl)amino)-3-oxoprop-1-en-1-yl)-N-cyclopropyl-7-hydroxy-4-isobutyl-2-methyl-5-oxo-4,5-dihydropyrazolo[1,5-a]pyrimidine-6-carboxamide] | 0.77 nM
9 | Cc1nn2c(O)c(C(=O)NC3CC3)c(=O)n(CC(C)C)c2c1/C=C/C(=O)N1CC[C@H](C#N)C1 [Synthesis Example 688, (S,E)-3-(3-(3-Cyanopyrrolidin-1-yl)-3-oxoprop-1-en-1-yl)-N-cyclopropyl-7-hydroxy-4-isobutyl-2-methyl-5-oxo-4,5-dihydropyrazolo[1,5-a]pyrimidine-6-carboxamide] | 0.91 nM
10 | Cc1nn2c(O)c(C(=O)NC3CC3)c(=O)n(CC(C)C)c2c1/C=C/C(=O)N1CC[C@@H](C#N)C1 [Synthesis Example 689, (R,E)-3-(3-(3-Cyanopyrrolidin-1-yl)-3-oxoprop-1-en-1-yl)-N-cyclopropyl-7-hydroxy-4-isobutyl-2-methyl-5-oxo-4,5-dihydropyrazolo[1,5-a]pyrimidine-6-carboxamide] | 0.95 nM
11 | Cc1nn2c(O)c(C(=O)NC3CC3)c(=O)n(CC(C)(C)C)c2c1/C=C/C(=O)N(C)CC#N [Synthesis Example 690, (E)-3-(3-((Cyanomethyl)(methyl)amino)-3-oxoprop-1-en-1-yl)-N-cyclopropyl-7-hydroxy-2-methyl-4-neopentyl-5-oxo-4,5-dihydropyrazolo[1,5-a]pyrimidine-6-carboxamide] | 1.46 nM
12 | CC[C@H]1COCCN1C(=O)/C=C/c1c(C)nn2c(O)c(C(=O)NC3CC3)c(=O)n(CC(C)(C)C)c12 [Synthesis Example 691, (S,E)-N-Cyclopropyl-3-(3-(3-ethylmorpholino)-3-oxoprop-1-en-1-yl)-7-hydroxy-2-methyl-4-neopentyl-5-oxo-4,5-dihydropyrazolo[1,5-a]pyrimidine-6-carboxamide] | 0.82 nM
13 | Cc1nn2c(O)c(C(=O)NC3CC3)c(=O)n(CC(C)(C)C)c2c1/C=C/C(=O)N1CCN(C2CC(F)(F)C2)CC1 [Synthesis Example 692, (E)-N-Cyclopropyl-3-(3-(4-(3,3-difluorocyclobutyl)piperazin-1-yl)-3-oxoprop-1-en-1-yl)-7-hydroxy-2-methyl-4-neopentyl-5-oxo-4,5-dihydropyrazolo[1,5-a]pyrimidine-6-carboxamide] | 0.8 nM
14 | COC[C@@H]1COCCN1C(=O)/C=C/c1c(C)nn2c(O)c(C(=O)NC3CC3)c(=O)n(CC(C)(C)C)c12 [Synthesis Example 693, (R,E)-N-Cyclopropyl-7-hydroxy-3-(3-(3-(methoxymethyl)morpholino)-3-oxoprop-1-en-1-yl)-2-methyl-4-neopentyl-5-oxo-4,5-dihydropyrazolo[1,5-a]pyrimidine-6-carboxamide] | 0.71 nM
15 | COC[C@H]1COCCN1C(=O)/C=C/c1c(C)nn2c(O)c(C(=O)NC3CC3)c(=O)n(CC(C)(C)C)c12 [Synthesis Example 694, (S,E)-N-Cyclopropyl-7-hydroxy-3-(3-(3-(methoxymethyl)morpholino)-3-oxoprop-1-en-1-yl)-2-methyl-4-neopentyl-5-oxo-4,5-dihydropyrazolo[1,5-a]pyrimidine-6-carboxamide] | 0.85 nM
16 | Cc1nn2c(O)c(C(=O)NC3CC3)c(=O)n(CC(C)C)c2c1/C=C/C(=O)N1CCOc2ccncc21 [Synthesis Example 695, (E)-N-Cyclopropyl-3-(3-(2,3-dihydro-4H-pyrido[4,3-b][1,4]oxazin-4-yl)-3-oxoprop-1-en-1-yl)-7-hydroxy-4-isobutyl-2-methyl-5-oxo-4,5-dihydropyrazolo[1,5-a]pyrimidine-6-carboxamide] | 1.3 nM
17 | Cc1nn2c(O)c(C(=O)NC3CC3)c(=O)n(CC(C)C)c2c1/C=C/C(=O)N1CCOc2ccccc21 [Synthesis Example 696, (E)-N-Cyclopropyl-3-(3-(2,3-dihydro-4H-benz[b][1,4]oxazin-4-yl)-3-oxoprop-1-en-1-yl)-7-hydroxy-4-isobutyl-2-methyl-5-oxo-4,5-dihydropyrazolo[1,5-a]pyrimidine-6-carboxamide] | 1.71 nM
18 | Cc1nn2c(O)c(C(=O)NC3CC3)c(=O)n(CC(C)C)c2c1/C=C/C(=O)N1CCN(C2CC(F)(F)C2)C[C@H]1C [Synthesis Example 697, (R,E)-N-Cyclopropyl-3-(3-(4-(3,3-difluorocyclobutyl)-2-methylpiperazin-1-yl)-3-oxoprop-1-en-1-yl)-7-hydroxy-4-isobutyl-2-methyl-5-oxo-4,5-dihydropyrazolo[1,5-a]pyrimidine-6-carboxamide] | 1.22 nM
19 | Cc1nn2c(O)c(C(=O)NC3CC3)c(=O)n(CC(C)C)c2c1/C=C/C(=O)N1CCN(CC2CC(F)(F)C2)CC1 [Synthesis Example 698, (E)-N-Cyclopropyl-3-(3-(4-((3,3-difluorocyclobutyl)methyl)piperazin-1-yl)-3-oxoprop-1-en-1-yl)-7-hydroxy-4-isobutyl-2-methyl-5-oxo-4,5-dihydropyrazolo[1,5-a]pyrimidine-6-carboxamide] | 1.52 nM
20 | Cc1nn2c(O)c(C(=O)NC3CC3)c(=O)n(CC(C)C)c2c1/C=C/C(=O)N1CCc2ccncc21 [Synthesis Example 699, (E)-N-Cyclopropyl-3-(3-(2,3-dihydro-1H-pyrrolo[2,3-c]pyridin-1-yl)-3-oxoprop-1-en-1-yl)-7-hydroxy-4-isobutyl-2-methyl-5-oxo-4,5-dihydropyrazolo[1,5-a]pyrimidine-6-carboxamide] | 1.47 nM
21 | Cc1nn2c(O)c(C(=O)NC3CC3)c(=O)n(CC(C)C)c2c1/C=C/C(=O)N1CC[C@@H](C(C)(C)O)C1 [Synthesis Example 700, (R,E)-N-Cyclopropyl-7-hydroxy-3-(3-(3-(2-hydroxypropan-2-yl)pyrrolidin-1-yl)-3-oxoprop-1-en-1-yl)-4-isobutyl-2-methyl-5-oxo-4,5-dihydropyrazolo[1,5-a]pyrimidine-6-carboxamide] | 0.96 nM
22 | Cc1nn2c(O)c(C(=O)NC3CC3)c(=O)n(CC(C)C)c2c1/C=C/C(=O)N1CCN(C)C[C@@H]1C [Synthesis Example 701, (S,E)-N-Cyclopropyl-3-(3-(2,4-dimethylpiperazin-1-yl)-3-oxoprop-1-en-1-yl)-7-hydroxy-4-isobutyl-2-methyl-5-oxo-4,5-dihydropyrazolo[1,5-a]pyrimidine-6-carboxamide] | 0.98 nM
23 | Cc1nn2c(O)c(C(=O)NC3CC3)c(=O)n(CC(C)C)c2c1/C=C/C(=O)N1CCN(C)C[C@H]1C [Synthesis Example 702, (R,E)-N-Cyclopropyl-3-(3-(2,4-dimethylpiperazin-1-yl)-3-oxoprop-1-en-1-yl)-7-hydroxy-4-isobutyl-2-methyl-5-oxo-4,5-dihydropyrazolo[1,5-a]pyrimidine-6-carboxamide] | 0.87 nM
